Data reported in publication PMC6797808, “Fucosylated inhibitors of recently identified bangle lectin from Photorhabdus asymbiotica” (Scientific Reports, 2019).

Tests used:
[1] = molecular target: T1, PHL (Photorhabdus asymbiotica, UniProt C7BLE4); assay: Isothermal titration calorimetry of PHL with ligands; format: binding; settings: for Kd / −TΔS / −ΔG / −ΔH / n (stoichiometry): ITC at 25 °C; for n (stoichiometry): two independent measurements; for Potency L-Fuc: KD L-fucose / KD ligand; for β L-Fuc (affinity improvement factor): KD,basic unit/(valency × KD,ligand), basic unit L-Fuc; for β Azide1 (affinity improvement factor): basic unit azide 1
From the text: The binding of PHL to different α-L-fucoside compounds was further characterized by isothermal titration calorimetry (ITC), enabling determination of the complete thermodynamic profile of the molecular interactions (Table 3, Fig. 4). […] Because of this, it was not possible to evaluate the data, despite the obvious interaction. The dendrimers also cross-linked/aggregated the protein as with calixarenes, however the curves provided clear outcomes with an affinity in the low micromolar range. The dissociation constants (KD) of all dendrimers correlate with their valency – the higher number of fucose, the more decreased KD. […] The stoichiometry value n corresponds to the number of terminal fucoses per ligand molecule. The n value decreases from 4 to 1 as the number of fucose units increases from 1 to 12 (Table 3).
PHL protein in buffer A was equilibrated at room temperature at least for 30 min before ITC measurement. All ITC experiments were performed using ITC200 calorimeter (Malvern Panalytical, UK) at 25 °C. Carbohydrate ligands dissolved in buffer A were used at different concentrations. Protein in the calorimeter cell (50 μM) was titrated by consecutive additions (2 μl) of the ligand (1.5–5 mM) in the syringe while stirring at 1000 rpm. Integrated heat effects were analysed by nonlinear regression using a single-site binding model and global fitting in Origin 7 software (Microcal Instruments)[37]. The thermodynamic parameters of synthesised inhibitors were determined from two independent measurements.

[2] = system: P. asymbiotica subsp. australis cells; assay: Cell aggregation (cross-linking) assay; format: cell-based, Photorhabdus asymbiotica subsp. australis; settings: three independent measurements
From the text: Because of the aggregation of PHL by calixarenes and dendrimers during SPR and ITC experiments, we decided to compare tetravalent compounds at a higher level. We performed a series of in vitro aggregation assays to reveal their aggregation properties towards P. asymbiotica subsp. australis (Table 4, Fig. 5). Prior to each assay, we confirmed the absence of aggregates in two negative controls – bacterial cells in PBS buffer and in the presence of azide 1 as a monomer. With all chosen compounds, we observed bacterial aggregates of a variable size that confirmed that they are capable of interacting with a cell surface. This effect may be caused by interaction of the multivalent inhibitors with PHL or other receptors. The concentration of the first appearance of aggregates varied according to the nature of the ligand used. […] An unexpected observation was that calixarene 7 had the lowest aggregation potential. In contrast to other techniques (hemagglutination, SPR and ITC), where calixarenes 6 and 7 provided similar results, during cross-linking experiments calixarene 7 was four times worse than calixarene 6. At the same time, both tetrameric calixarenes 6 and 7 are in a 1,3-alternate conformation with the two-faced presentation of the fucopyranosyl epitopes on opposite regions probably occupying a similar spatial orientation. The only difference is the tert-Bu group on the upper rim in calixarene 6, which might contribute to nonpolar interactions with whole P. asymbiotica cells.
P. asymbiotica subsp. australis was inoculated from stock cells stored at −80 °C into a standard LB media and were grown in 30 °C under an orbital shaking overnight. Bacterial growth was tracked by measuring the optical density of the broth at 600 nm (OD600) using a spectrophotometer (Biochrom Ltd., BioPhotometer WGA CO 8000 Biowave). Cells were harvested when reaching an OD600 = 0.5. The culture was centrifuged at 4,300 g and room temperature for 2 minutes (Minispin, Eppendorf, Germany) and cells were then washed three times with PBS buffer. Cells were diluted in PBS to OD600 of 2.0 and kept in a fridge until performing the aggregation assay.
P. asymbiotica subsp. australis cells and fucosylated compounds in a concentration ranging from 50 mM to 3.125 mM were gently mixed in a 9:1 (v/v) ratio. The reaction mixtures were left at room temperature for 10 minutes. 5 µl of reaction mixture was then transferred onto a microscope slide and observed under a fluorescence microscope (OLYMPUS IX81 Microscope IX81F-3 with IX2-UCB-2 Controller and X-Cite 120PC Q; Olympus and Excelitas Technologies, Japan, resp. USA). As a negative control, bacterial cells with/without azide 1 as a monomer were used. Three independent measurements were performed.

[3] = molecular target: T1, PHL; assay: SPR competitive inhibition of PHL binding to α-L-fucoside sensor chip; settings: for IC50: 25 °C, three independent measurements; for β L-Fuc (affinity improvement factor): IC50,basic unit/(valency × IC50,ligand), basic unit L-Fuc; for PotencyL-Fuc: IC50 L-fucose / IC50 ligand; for β Azide1 (affinity improvement factor): basic unit azide 1
Experimental: To analyse the competitive inhibition of PHL binding to a multivalent surface, the surface plasmon resonance (SPR) technique was employed. A sensor chip presenting α-L-fucopyranoside residues was treated with a constant concentration of PHL, while an increasing concentration of the ligands was used to determine IC50 (Table 2, Fig. 3). […] To assess the contribution of valency to the affinity increase, an affinity improvement factor β was calculated as the relationship IC50,basic unit/(valency × IC50,ligand)[30].
Surface plasmon resonance (SPR) experiments were performed on a BIAcore T200 instrument (GE Healthcare, UK) at 25 °C, using buffer A supplemented with 0.05% Tween 20 as a running buffer. α-L-fucoside was immobilized onto CM5 sensor chip (GE Healthcare, UK) covered with a carboxymethylated dextran matrix. The sensor chip surface was activated with N-ethyl-N-(3-dimethylaminopropyl)carbodiimide/N-hydroxysuccinimide solution and then coated with streptavidin using the manufacturer’s standard protocol using HBS buffer (10 mM HEPES, 150 mM NaCl, 0.05% Tween 20, pH 7. 5). Unreacted groups were blocked with 1 M ethanolamine-HCl, pH 8.5. Biotinylated carbohydrate (biotinilated monomeric probes, Lectinity, Russia) was injected onto particular measuring channel and pure biotin on blank channel at a flow rate of 5 μl/min.
SPR inhibition measurements were carried out on measuring channel with L-fucoside at a flow rate of 5 µl/min. PHL was diluted to a concentration of 20 μg/ml by the buffer A supplemented with 0.05% Tween 20, mixed 1:1 (v/v) with various concentrations of inhibitors (500–5 μM) in the same buffer and injected onto the sensor chip. The response of lectin bound to the sugar surface at equilibrium was plotted against the concentration of inhibitor in order to determine IC50 (concentration of inhibitor resulting in 50% inhibition of binding). As IC50 is not a constant and depends on the experimental set-up, a parameter called potency was used for characterization. The potency of a tested inhibitor is the ratio of IC50 of a chosen standard inhibitor (in this case L-fucose) and the inhibitor in question. Pure PHL lectin was used as a control (0% inhibition) and channel with pure biotin served as a blank. IC50 was determined from triplicates.

T1 sequence (C7BLE4 entry or part of it): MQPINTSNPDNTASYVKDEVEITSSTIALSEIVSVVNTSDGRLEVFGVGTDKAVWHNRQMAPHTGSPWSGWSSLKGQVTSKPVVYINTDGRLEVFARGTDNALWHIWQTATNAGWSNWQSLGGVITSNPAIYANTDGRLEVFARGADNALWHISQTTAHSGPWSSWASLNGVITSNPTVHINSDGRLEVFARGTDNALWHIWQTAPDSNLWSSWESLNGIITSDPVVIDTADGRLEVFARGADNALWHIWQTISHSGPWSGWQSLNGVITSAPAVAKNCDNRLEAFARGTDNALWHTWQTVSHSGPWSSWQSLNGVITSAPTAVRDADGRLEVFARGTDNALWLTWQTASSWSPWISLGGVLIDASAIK

## C[C@@H]1O[C@@H](CCN=[N+]=[N-])[C@@H](O)[C@H](O)[C@@H]1O [Azide 1]
[1]
  Kd: 105 ± 9 µM
  −TΔS: 4.83 ± 1.05 kcal/mol
  −ΔG: 5.43 ± 0.478 kcal/mol
  −ΔH: 10.3 ± 0.932 kcal/mol
  n (stoichiometry): 4.1 ± 0.3
[1]; ITC
  Potency L-Fuc: 13
  β L-Fuc (affinity improvement factor): 13
  β Azide1 (affinity improvement factor): 1
[2]
  The lowest concentration able to aggregate P. asymbiotica cells: No visible aggregation in used concentrations
[3]
  IC50: 11.5 ± 1.4 µM
  β L-Fuc (affinity improvement factor): 32
  PotencyL-Fuc: 32
  β Azide1 (affinity improvement factor): 1

## C[C@@H]1O[C@@H](CCn2cc(COCC(COCc3cn(CC[C@@H]4O[C@@H](C)[C@@H](O)[C@@H](O)[C@@H]4O)nn3)(COCc3cn(CC[C@@H]4O[C@@H](C)[C@@H](O)[C@@H](O)[C@@H]4O)nn3)COCc3cn(CC[C@@H]4O[C@@H](C)[C@@H](O)[C@@H](O)[C@@H]4O)nn3)nn2)[C@@H](O)[C@H](O)[C@@H]1O [Dendrimer 8]
[1]
  Kd: 36.9 ± 3.7 µM
  −TΔS: 6.84 ± 0.765 kcal/mol
  −ΔG: 6.05 ± 0.598 kcal/mol
  −ΔH: 12.9 ± 0.454 kcal/mol
  n (stoichiometry): 3.0 ± 0.1
[1]; ITC
  Potency L-Fuc: 38
  β L-Fuc (affinity improvement factor): 9
  β Azide1 (affinity improvement factor): 1
[1]; ITC, relative to azide 1
  PotencyAzide1: 3
[2]
  The lowest concentration able to aggregate P. asymbiotica cells: 0.625 mM
[3]
  IC50: 0.188 ± 0.037 µM
  β L-Fuc (affinity improvement factor): 481
  PotencyL-Fuc: 1,922
  β Azide1 (affinity improvement factor): approximately 15
[3]; relative to azide 1
  PotencyAzide1: 65
